Patent US6861390B2, “Derivatives of UK-2A” (priority 2001, dated 2005)
Like-named read-outs stand apart in the source and are kept apart here.

What was measured:
[1] = test system: Leptosphaeria nodorum (LEPTNO); experiment: Glume Blotch of Wheat, whole plant 24 Hour Protectant (T2); conditions: Parastagonospora nodorum, read-out: T2 LEPTNO in vivo 1 Day Protectant, control of fungal infection
[2] = test system: Phytophthora infestans (PHYTIN); experiment: whole plant or invertebrate; conditions: in Solanum lycopersicum, 24 h, read-out: T3 PHYTIN in vivo 1 Day Protectant, control of fungal infection
[3] = test system: Puccinia recondita (PUCCRT); experiment: Brown Rust of Wheat, whole plant 24 Hour Protectant (T5); conditions: read-out: T5 PUCCRT in vivo 1 Day Protectant, control of fungal infection
[4] = test system: Stagonospora nodorum (Leptosphaeria nodorum, LEPTNO); experiment: microbe, parasite or virus in culture; assay type: cell-based; conditions: Parastagonospora nodorum, read-out: T7 LEPTNO in vitro Growth Inhibition
[5] = test system: Phytophthora infestans (PHYTIN); experiment: microbe, parasite or virus in culture; assay type: cell-based; conditions: in Secale cereale, read-out: T8 PHYTIN in vitro Growth Inhibition
[6] = test system: Magnaporthe grisea (Pyricularia oryzae, PYRIOR); experiment: microbe, parasite or virus in culture; assay type: cell-based; conditions: read-out: T9 PYRIOR in vitro Growth Inhibition
[7] = test system: Rhizoctonia solani (RHIZSO); experiment: microbe, parasite or virus in culture; assay type: cell-based; conditions: read-out: T10 RHIZSO in vitro Growth Inhibition
[8] = test system: Mycosphaerella graminicola (Septoria tritici, SEPTTR); experiment: microbe, parasite or virus in culture; assay type: cell-based; conditions: Zymoseptoria tritici, read-out: T11 SEPTTR in vitro Growth Inhibition
Ustilago maydis (USTIMA) = experiment: microbe, parasite or virus in culture; assay type: cell-based; conditions: Mycosarcoma maydis, read-out: T12 USTIMA in vitro Growth Inhibition
[9] = test system: Erysiphe graminis (ERYSGT); experiment: Powdery Mildew of Wheat, whole plant 24 Hour Protectant (T1); conditions: Blumeria graminis, in Triticum aestivum, read-out: T1 ERYSGT in vivo 1 Day Protectant, control of fungal infection
Method: Compound formulation was accomplished by dissolving technical materials in acetone, with serial dilutions then made in acetone to obtain desired concentrations. Final treatment volumes were obtained by adding 9 volumes 0.01% Triton X-100.
Powdery Mildew of Wheat (Erysiphe graminis—ERYSGT) (24 Hour Protectant): Wheat (cultivar Monon) was grown in a soilless peat-based potting mixture (“Metromix”) and mineral soil (50/50 mix) until the seedlings were 10-20 cm tall. These plants were then sprayed to run-off with the test compound at a rate of 100 ppm. After 24 hours the test plants were inoculated by dusting with conidia from powdery mildew infected wheat plants. The plants were then transferred to the greenhouse until disease developed on the untreated control plants.

[10] = test system: Septoria tritici (SEPTTR); experiment: Leaf Blotch of Wheat, whole plant 24 Hour Protectant (T6); conditions: Zymoseptoria tritici; wheat (cultivar Monon), sprayed at 100 ppm, inoculated after 24 hours; read-out: T6 SEPTTR in vivo 1 Day Protectant, control of fungal infection
[11] = wheat (cultivar Yuma), sprayed at 100 ppm, inoculated after 24 hours

SMILES | pest or weed control at 100 ppm [1, 11] | pest or weed control at 100 ppm [2] | pest or weed control at 100 ppm [3, 11] | inhibition at 25 ppm [4] | inhibition at 25 ppm [5] | inhibition at 25 ppm [6] | inhibition at 25 ppm [7] | inhibition at 25 ppm [8] | inhibition at 25 ppm (Ustilago maydis (USTIMA)) | pest or weed control at 100 ppm [9] | pest or weed control at 100 ppm [10] | pest or weed control at 100 ppm ([1]; 24 h) | pest or weed control at 100 ppm ([3]; 24 h)
CCCOCOc1c(OC)ccnc1C(=O)N[C@H]1COC(=O)[C@H](Cc2ccccc2)[C@@H](OC(=O)C(C)C)[C@H](C)OC1=O [Compound 6] | 75 to 100% | < 25% | 75 to 100% | > 80% | < 80% | < 80% | < 80% | < 80% | < 80% | 25 to 74% | – | – | –
COc1ccnc(C(=O)N[C@H]2COC(=O)[C@H](Cc3ccccc3)[C@@H](OC(=O)C(C)C)[C@H](C)OC2=O)c1OCOC(C)(C)C [Compound 8] | 75 to 100% | < 25% | 75 to 100% | > 80% | < 80% | < 80% | < 80% | < 80% | > 80% | < 25% | 75 to 100% | – | –
COCCOCOc1c(OC)ccnc1C(=O)N[C@H]1COC(=O)[C@H](Cc2ccccc2)[C@@H](OC(=O)C(C)C)[C@H](C)OC1=O [Compound 11] | 75 to 100% | < 25% | 75 to 100% | – | – | – | – | – | – | 25 to 74% | – | – | –
COCC(C)OCOc1c(OC)ccnc1C(=O)N[C@H]1COC(=O)[C@H](Cc2ccccc2)[C@@H](OC(=O)C(C)C)[C@H](C)OC1=O (stereo partly shown) [Compound 12] | 75 to 100% | < 25% | 75 to 100% | > 80% | < 80% | > 80% | > 80% | > 80% | > 80% | 25 to 74% | 75 to 100% | – | –
COc1ccnc(C(=O)N[C@H]2COC(=O)[C@H](Cc3ccccc3)[C@@H](OC(=O)C(C)C)[C@H](C)OC2=O)c1OC(C)OC (stereo partly shown) [Compound 16] | 75 to 100% | < 25% | – | > 80% | < 80% | > 80% | < 80% | > 80% | < 80% | < 25% | – | – | –
COc1ccnc(C(=O)N[C@H]2COC(=O)[C@H](Cc3ccccc3)[C@@H](OC(=O)C(C)C)[C@H](C)OC2=O)c1OCOCCOC(C)=O [Compound 17] | 75 to 100% | < 25% | 75 to 100% | > 80% | < 80% | < 80% | > 80% | > 80% | < 80% | < 25% | 75 to 100% | – | –
CCC(=O)OCOc1c(OC)ccnc1C(=O)N[C@H]1COC(=O)[C@H](Cc2ccccc2)[C@@H](OC(=O)C(C)C)[C@H](C)OC1=O [Compound 21] | 75 to 100% | < 25% | 75 to 100% | > 80% | < 80% | > 80% | < 80% | > 80% | < 80% | 25 to 74% | 75 to 100% | – | –
COc1ccnc(C(=O)N[C@H]2COC(=O)[C@H](Cc3ccccc3)[C@@H](OC(=O)C(C)C)[C@H](C)OC2=O)c1OCOC(=O)C(C)C [Compound 23] | – | < 25% | – | > 80% | < 80% | < 80% | < 80% | < 80% | > 80% | 25 to 74% | – | 75 to 100% | 75 to 100%
COCC(=O)OCOc1c(OC)ccnc1C(=O)N[C@H]1COC(=O)[C@H](Cc2ccccc2)[C@@H](OC(=O)C(C)C)[C@H](C)OC1=O [Compound 30] | 75 to 100% | < 25% | 75 to 100% | > 80% | < 80% | > 80% | > 80% | < 80% | > 80% | 75 to 100% | 75 to 100% | – | –
COc1ccnc(C(=O)N[C@H]2COC(=O)[C@H](Cc3ccccc3)[C@@H](OC(=O)C(C)C)[C@H](C)OC2=O)c1OCOC(=O)OC(C)C [Compound 47] | 75 to 100% | < 25% | 75 to 100% | – | – | – | – | – | – | < 25% | – | – | –
C=CCO[C@H]1[C@H](C)OC(=O)[C@@H](NC(=O)c2nccc(OC)c2OCOC(C)=O)COC(=O)[C@@H]1Cc1ccccc1 [Compound 52] | 75 to 100% | < 25% | 75 to 100% | > 80% | < 80% | > 80% | > 80% | > 80% | < 80% | < 25% | – | – | –
COc1ccnc(C(=O)N[C@H]2COC(=O)[C@H](Cc3ccccc3)[C@@H](OCC(C)C)[C@H](C)OC2=O)c1OCOCC(C)C [Compound 65] | 75 to 100% | < 25% | 75 to 100% | – | – | – | – | – | – | < 25% | 75 to 100% | – | –
COCCOC(C)C(=O)OCOc1c(OC)ccnc1C(=O)N[C@H]1COC(=O)[C@H](Cc2ccccc2)[C@@H](OC(=O)C(C)C)[C@H](C)OC1=O (stereo partly shown) [Compound 66] | 75 to 100% | < 25% | 75 to 100% | < 80% | < 80% | < 80% | < 80% | < 80% | < 80% | – | – | – | –
COc1ccnc(C(=O)N[C@H]2COC(=O)[C@H](Cc3ccccc3)[C@@H](OC(=O)C(C)C)[C@H](C)OC2=O)c1OCOC(=O)C(C)OC (stereo partly shown) [Compound 67] | 75 to 100% | < 25% | 75 to 100% | < 80% | < 80% | < 80% | < 80% | < 80% | > 80% | – | – | – | –
CCOC(C)C(=O)OCOc1c(OC)ccnc1C(=O)N[C@H]1COC(=O)[C@H](Cc2ccccc2)[C@@H](OC(=O)C(C)C)[C@H](C)OC1=O (stereo partly shown) [Compound 68] | 75 to 100% | < 25% | 75 to 100% | > 80% | < 80% | < 80% | > 80% | > 80% | > 80% | – | – | – | –
CCCOC(C)C(=O)OCOc1c(OC)ccnc1C(=O)N[C@H]1COC(=O)[C@H](Cc2ccccc2)[C@@H](OC(=O)C(C)C)[C@H](C)OC1=O (stereo partly shown) [Compound 69] | 75 to 100% | < 25% | 75 to 100% | > 80% | < 80% | > 80% | > 80% | > 80% | > 80% | – | – | – | –
COc1ccnc(C(=O)N[C@H]2COC(=O)[C@H](Cc3ccccc3)[C@@H](OC(=O)C(C)C)[C@H](C)OC2=O)c1OCOC(=O)COCC(F)(F)F [Compound 70] | 75 to 100% | < 25% | 75 to 100% | > 80% | < 80% | < 80% | < 80% | < 80% | > 80% | – | – | – | –
COc1ccnc(C(=O)N[C@H]2COC(=O)[C@H](Cc3ccccc3)[C@@H](OC)[C@H](C)OC2=O)c1OCOC(C)=O [Compound 71] | – | – | – | > 80% | < 80% | > 80% | < 80% | > 80% | > 80% | – | – | – | –
COCCOCCOCC(=O)OCOc1c(OC)ccnc1C(=O)N[C@H]1COC(=O)[C@H](Cc2ccccc2)[C@@H](OC(=O)C(C)C)[C@H](C)OC1=O [Compound 75] | – | < 25% | – | > 80% | < 80% | > 80% | < 80% | > 80% | > 80% | 75 to 100% | – | – | –
